Source: ChEMBL document CHEMBL5532701 (RSC Med Chem, 2024)
≈ marks a conversion by molar mass, not a printed value.

Legend:
Haemophilus influenzae = assay: Antibacterial activity against Haemophilus influenzae ATCC 43095 assessed as reduction in bacterial growth incubated for 20 hrs; format: functional
[1] = Inhibition of N-terminal his-tagged Chlamydomonas DXPS
[2] = Permeability of the compound assessed as absorbed fraction incubated for 10 hrs by PAMPA assay; format: ADME
Escherichia coli = assay: Antibacterial activity against Escherichia coli W3110 assessed as reduction in bacterial growth incubated for 20 hrs; format: functional
[3] = target: T1, 1-deoxy-D-xylulose-5-phosphate synthase (Haemophilus influenzae (strain 86-028NP), UniProt Q4QKG6); assay: Inhibition of Haemophilus influenzae recombinant DXPS
T1 sequence (Q4QKG6 whole entry): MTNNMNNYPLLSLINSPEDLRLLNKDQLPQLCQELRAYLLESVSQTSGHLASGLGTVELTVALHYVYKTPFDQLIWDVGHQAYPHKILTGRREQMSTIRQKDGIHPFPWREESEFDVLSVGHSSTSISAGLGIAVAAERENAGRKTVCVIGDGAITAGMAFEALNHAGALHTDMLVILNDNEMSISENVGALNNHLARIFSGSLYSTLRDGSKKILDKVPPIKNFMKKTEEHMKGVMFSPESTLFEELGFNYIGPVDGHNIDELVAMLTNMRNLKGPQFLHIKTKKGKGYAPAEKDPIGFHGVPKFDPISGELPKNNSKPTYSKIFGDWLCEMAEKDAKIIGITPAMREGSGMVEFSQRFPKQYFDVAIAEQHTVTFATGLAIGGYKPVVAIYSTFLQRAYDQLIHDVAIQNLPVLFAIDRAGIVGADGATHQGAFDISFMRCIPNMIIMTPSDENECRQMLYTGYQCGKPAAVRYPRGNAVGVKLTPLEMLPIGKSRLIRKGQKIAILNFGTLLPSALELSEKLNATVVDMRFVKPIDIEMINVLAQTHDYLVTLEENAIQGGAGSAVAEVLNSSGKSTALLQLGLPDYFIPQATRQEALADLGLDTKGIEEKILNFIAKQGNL

HFF = assay: Cytotoxicity against human HFF cells assessed as inhibition of cell proliferation upto 1000 uM incubated for 96 hrs by SYBR-safe assay; format: toxicity, cell-based

| SMILES | MIC (Haemophilus influenzae) | IC50 [1] | permeability [2] | MIC (Escherichia coli) | IC50 [3] | Activity (HFF) |
| --- | --- | --- | --- | --- | --- | --- |
| CC(C)(C(=O)O)C(=O)N(O)Cc1ccccc1Cl | 117 µM (≈ 31.8 µg/mL) | – | – | – | – | – |
| CC1(C)C(=O)ON(Cc2ccccc2Cl)C1=O [KETOCLOMAZONE] | 31 µM (≈ 7.86 µg/mL) | 100 µM | 47% | 3100 µM (≈ 786 µg/mL) | 28 µM | Non-Toxic |
